# Measured values reported in patent US10717730B1, “Dihydroisoquinoline compound” (SUZHOU ARK BIOPHARMACEUTICAL CO., LTD., priority 2017, dated 2020).
# Tested on: HBsAg
# Assay: HBsAg assay (secreted HBsAg by CLIA in HepG2.2.15 cells)
# Format: cell-based, hepatitis B virus (HBV)
# Settings: Hepatitis B virus, HepG2.2.15, 96 h
# Procedure: HepG2.2.15 cells (Sells et al, Proc Natl Acad Sci USA. 1987 February; 84(4):1005-9), a constitutively HBV-expressing cell line, were cultured in DMEM medium supplemented with 10% FBS and 400 μg/mL G418, and maintained in 5% CO2 at 37° C.
# HepG2.2.15 cells were seeded into 96-well plates at 3×10^4 cells/well. The next day, the cells were treated with a five-fold serial dilution series of the compound in DMSO. The final DMSO concentration in all wells was 0.5% and 0.5% DMSO was used as no drug control. After four days of incubation with compounds, the supernatants were harvested and measured for HBsAg concentration
# The HBsAg chemiluminescence immunoassay (CLIA) kit was used to measure the levels of secreted HBsAg. Specifically, 50 μL of culture supernatant was transferred to the CLIA assay plate and 50 μL of enzyme conjugate reagent was added into each well. The plates were sealed and incubated for 1 hour at room temperature. The supernatant-enzyme-mixture was discarded and wells were washed for 6 times. The residual liquid was removed by plating on tissue paper. 25 μL of substrate A and B were added into each well. Luminance was measured using a spectrometer (Tecan Infinite® F200) after 10 minutes incubation. IC50 value was extrapolated based the dose-response curves generated from the data.
row,Structure (SMILES),IC50
1,"COc1cc2c(cc1-c1ccnn1C(C)C)CC(C(C)(C)C)n1cc(C(=O)O)c(=O)cc1-2 (stereo not drawn) [Example 18, 6-(tert-butyl)-9-(1-isopropyl-1H-pyrazol-5-yl)-10-methoxy-2-oxo-6,7-dihydro-2H-pyrido[2,1-a]isoquinoline-3-carboxylic acid]",77 nM
2,"COc1cc2c(cc1-c1c(C)cnn1C)CC(C(C)(C)C)n1cc(C(=O)O)c(=O)cc1-2 (stereo not drawn) [Example 19, 6-(tert-butyl)-9-(1,4-dimethyl-1H-pyrazol-5-yl)-10-methoxy-2-oxo-6,7-dihydro-2H-pyrido[2,1-a]isoquinoline-3-carboxylic acid]",68 nM
3,"COc1cc2c(cc1-c1cnn(CC(=O)O)c1)CC(C(C)(C)C)n1cc(C(=O)O)c(=O)cc1-2 (stereo not drawn) [Example 20, 6-(tert-butyl)-9-(1-carboxymethyl-1H-pyrazol-4-yl)-10-methoxy-2-oxo-6,7-dihydro-2H-pyrido[2,1-a]isoquinoline-3-carboxylic acid]",7 nM
4,"CCOC(=O)CCn1cc(-c2cc3c(cc2OC)-c2cc(=O)c(C(=O)OCC)cn2C(C(C)(C)C)C3)cn1 (stereo not drawn) [Example 21, Ethyl 6-(tert-butyl)-9-(1-(3-ethoxy-3-oxopropyl)-1H-pyrazol-4-yl)-10-methoxy-2-oxo-6,7-dihydro-2H-pyrido[2,1-a]isoquinoline-3-carboxylate]",16 nM
5,"COc1cc2c(cc1-c1ccc(N3CCN(C(C)=O)CC3)nc1)CC(C(C)(C)C)n1cc(C(=O)O)c(=O)cc1-2 (stereo not drawn) [Example 46, 9-(6-(4-acetylpiperazin-1-yl)pyridin-3-yl)-6-(tert-butyl)-10-methoxy-2-oxo-6,7-dihydro-2H-pyrido[2,1-a]isoquinoline-3-carboxylic acid]",3 nM
6,"COc1cc2c(cc1-c1ccc(N3CCN(C)CC3)nc1)CC(C(C)(C)C)n1cc(C(=O)O)c(=O)cc1-2 (stereo not drawn) [Example 47, 6-(tert-butyl)-10-methoxy-9-(6-(4-methylpiperazin-1-yl)pyridin-3-yl)-2-oxo-6,7-dihydro-2H-pyrido[2,1-a]isoquinoline-3-carboxylic acid]",2 nM
7,"COc1cc2c(cc1-c1cnc(F)cc1C)CC(C(C)(C)C)n1cc(C(=O)O)c(=O)cc1-2 (stereo not drawn) [Example 48, 6-(tert-butyl)-9-(6-fluoro-4-methylpyridin-3-yl)-10-methoxy-2-oxo-6,7-dihydro-2H-pyrido[2,1-a]isoquinoline-3-carboxylic acid]",68 nM
8,"COc1cc2c(cc1-c1ccc(F)nc1)CC(C(C)(C)C)n1cc(C(=O)O)c(=O)cc1-2 (stereo not drawn) [Example 49, 6-(tert-butyl)-9-(6-fluoropyridin-3-yl)-10-methoxy-2-oxo-6,7-dihydro-2H-pyrido[2,1-a]isoquinoline-3-carboxylic acid]",14 nM
9,"COc1cc2c(cc1-c1ccc(NCC3CC3)nc1)CC(C(C)(C)C)n1cc(C(=O)O)c(=O)cc1-2 (stereo not drawn) [Example 52, 6-(tert-butyl)-9-(6-(cyclopropylmethylamino)pyridin-3-yl)-10-methoxy-2-oxo-6,7-dihydro-2H-pyrido[2,1-a]isoquinoline-3-carboxylic acid]",12 nM
10,"COc1cc2c(cc1-c1cnc(N3CCC3)cc1C)CC(C(C)(C)C)n1cc(C(=O)O)c(=O)cc1-2 (stereo not drawn) [Example 53, 9-(6-(azetidin-1-yl)-4-methylpyridin-3-yl)-6-(tert-butyl)-10-methoxy-2-oxo-6,7-dihydro-2H-pyrido[2,1-a]isoquinoline-3-carboxylic acid]",1400 nM
11,"COc1cc2c(cc1-c1ccc(N)nc1)CC(C(C)(C)C)n1cc(C(=O)O)c(=O)cc1-2 (stereo not drawn) [Example 54, 9-(6-aminopyridin-3-yl)-6-(tert-butyl)-10-methoxy-2-oxo-6,7-dihydro-2H-pyrido[2,1-a]isoquinoline-3-carboxylic acid]",1 nM
12,"CCOC(=O)c1cn2c(cc1=O)-c1cc(OC)c(-c3ccc(C)nc3)cc1CC2C(C)(C)C (stereo not drawn) [Example 55, Ethyl 6-(tert-butyl)-10-methoxy-9-(6-methylpyridin-3-yl)-2-oxo-6,7-dihydro-2H-pyrido[2,1-a]isoquinoline-3-carboxylate]",0.8 nM
13,"COc1cc2c(cc1-c1ccc(NC3CCC3)nc1)CC(C(C)(C)C)n1cc(C(=O)O)c(=O)cc1-2 (stereo not drawn) [Example 56, 6-(tert-butyl)-9-(6-(cyclobutylamino)pyridin-3-yl)-10-methoxy-2-oxo-6,7-dihydro-2H-pyrido[2,1-a]isoquinoline-3-carboxylic acid]",1 nM
14,"COc1cc2c(cc1-c1ccc(NC(C)=O)nc1)CC(C(C)(C)C)n1cc(C(=O)O)c(=O)cc1-2 (stereo not drawn) [Example 57, 9-(6-acetamidopyridin-3-yl)-6-(tert-butyl)-10-methoxy-2-oxo-6,7-dihydro-2H-pyrido[2,1-a]isoquinoline-3-carboxylic acid]",1 nM
15,"COc1cc2c(cc1-c1cnc(C)nc1)CC(C(C)(C)C)n1cc(C(=O)O)c(=O)cc1-2 (stereo not drawn) [Example 58, 6-(tert-butyl)-10-methoxy-9-(2-methylpyrimidin-5-yl)-2-oxo-6,7-dihydro-2H-pyrido[2,1-a]isoquinoline-3-carboxylic acid]",4 nM
16,"COc1cc2c(cc1-c1cnc(N3CCCC3)nc1)CC(C(C)(C)C)n1cc(C(=O)O)c(=O)cc1-2 (stereo not drawn) [Example 59, 6-(tert-butyl)-10-methoxy-2-oxo-9-(2-(pyrrolidin-1-yl)pyrimidin-5-yl)-6,7-dihydro-2H-pyrido[2,1-a]isoquinoline-3-carboxylic acid]",10 nM
17,"COc1cc2c(cc1-c1cnc(N(C)C)nc1)CC(C(C)(C)C)n1cc(C(=O)O)c(=O)cc1-2 (stereo not drawn) [Example 61, 6-(tert-butyl)-9-(2-(dimethylamino)pyrimidin-5-yl)-10-methoxy-2-oxo-6,7-dihydro-2H-pyrido[2,1-a]isoquinoline-3-carboxylic acid]",4 nM
18,"COc1cc2c(cc1-c1cnc(N3CCOCC3)nc1)CC(C(C)(C)C)n1cc(C(=O)O)c(=O)cc1-2 (stereo not drawn) [Example 62, 6-(tert-butyl)-10-methoxy-9-(2-morpholinylpyrimidin-5-yl)-2-oxo-6,7-dihydro-2H-pyrido[2,1-a]isoquinoline-3-carboxylic acid]",5 nM
19,"COc1cc2c(cc1-c1cnc(NC3CC3)nc1)CC(C(C)(C)C)n1cc(C(=O)O)c(=O)cc1-2 (stereo not drawn) [Example 64, 6-(tert-butyl)-9-(2-(cyclopropylamino)pyrimidin-5-yl)-10-methoxy-2-oxo-6,7-dihydro-2H-pyrido[2,1-a]isoquinoline-3-carboxylic acid]",7 nM
20,"COc1cc2c(cc1-c1cnc(N)nc1)CC(C(C)(C)C)n1cc(C(=O)O)c(=O)cc1-2 (stereo not drawn) [Example 65, 9-(2-aminopyrimidin-5-yl)-6-(tert-butyl)-10-methoxy-2-oxo-6,7-dihydro-2H-pyrido[2,1-a]isoquinoline-3-carboxylic acid]",80 nM
21,"COc1ncc(-c2cc3c(cc2OC)-c2cc(=O)c(C(=O)O)cn2C(C(C)(C)C)C3)cn1 (stereo not drawn) [Example 66, 6-(tert-butyl)-10-methoxy-9-(2-methoxypyrimidin-5-yl)-2-oxo-6,7-dihydro-2H-pyrido[2,1-a]isoquinoline-3-carboxylic acid]",0.8 nM
22,"COc1cc2c(cc1-c1cnc(NCC3CC3)nc1)CC(C(C)(C)C)n1cc(C(=O)O)c(=O)cc1-2 (stereo not drawn) [Example 67, 6-(tert-butyl)-9-(2-(cylcopropylmethylamino)pyrimidin-5-yl)-10-methoxy-2-oxo-6,7-dihydro-2H-pyrido[2,1-a]isoquinoline-3-carboxylic acid]",0.3 nM
23,"COc1cc2c(cc1-c1cnc(Cl)nc1)CC(C(C)(C)C)n1cc(C(=O)O)c(=O)cc1-2 (stereo not drawn) [Example 68, 6-(tert-butyl)-9-(2-chloropyrimidin-5-yl)-10-methoxy-2-oxo-6,7-dihydro-2H-pyrido[2,1-a]isoquinoline-3-carboxylic acid]",0.6 nM
24,"COc1cc2c(cc1-c1cnc(NC3CCC3)nc1)CC(C(C)(C)C)n1cc(C(=O)O)c(=O)cc1-2 (stereo not drawn) [Example 76, 6-(tert-butyl)-9-(2-(cyclobutylamino)pyrimidin-5-yl)-10-methoxy-2-oxo-6,7-dihydro-2H-pyrido[2,1-a]isoquinoline-3-carboxylic acid]",0.4 nM
25,"COc1cc2c(cc1-c1cnc(N3CCC(C(=O)O)C3)nc1)CC(C(C)(C)C)n1cc(C(=O)O)c(=O)cc1-2 (stereo not drawn) [Example 77, 6-(tert-butyl)-9-(2-(3-carboxypyrrolidin-1-yl)pyrimidin-5-yl)-10-methoxy-2-oxo-6,7-dihydro-2H-pyrido[2,1-a]isoquinoline-3-carboxylic acid]",150 nM
26,"COc1cc2c(cc1-c1cnc(NCC(=O)O)nc1)CC(C(C)(C)C)n1cc(C(=O)O)c(=O)cc1-2 (stereo not drawn) [Example 78, 6-(tert-butyl)-9-(2-((carboxymethyl)amino)pyrimidin-5-yl)-10-methoxy-2-oxo-6,7-dihydro-2H-pyrido[2,1-a]isoquinoline-3-carboxylic acid]",45 nM

# Tested on: not listed separately
# Assay: Cytotoxicity CC50 (CellTiter-Glo)
# Format: cell-based
# Settings: human; HepG2.2.15 cells, four days
# Procedure: HepG2.2.15 cells were seeded into 96-well white plate at 5000 cells/well and treated with serially diluted compounds. The plates were incubated in incubator with 5% CO2 at 37° C. for four days. The plate was taken out of incubator and adapted to room temperature for 30 minutes, followed by adding 25 μl CellTiter-Glo (Promega) reagent into each well and votexed at room temperature before being measured for luminance using spectrometer (Tecan Infinite® F200). The CC50 of each compound was defined as the compound concentration at which the treated well's cell viability is 50% compared to that of the DMSO treated well.
row,Structure (SMILES),CC50 at 4 days
1,"COc1cc2c(cc1-c1ccnn1C(C)C)CC(C(C)(C)C)n1cc(C(=O)O)c(=O)cc1-2 (stereo not drawn) [Example 18, 6-(tert-butyl)-9-(1-isopropyl-1H-pyrazol-5-yl)-10-methoxy-2-oxo-6,7-dihydro-2H-pyrido[2,1-a]isoquinoline-3-carboxylic acid]",50000 to 100000 nM
2,"COc1cc2c(cc1-c1c(C)cnn1C)CC(C(C)(C)C)n1cc(C(=O)O)c(=O)cc1-2 (stereo not drawn) [Example 19, 6-(tert-butyl)-9-(1,4-dimethyl-1H-pyrazol-5-yl)-10-methoxy-2-oxo-6,7-dihydro-2H-pyrido[2,1-a]isoquinoline-3-carboxylic acid]",50000 to 100000 nM
3,"COc1cc2c(cc1-c1cnn(CC(=O)O)c1)CC(C(C)(C)C)n1cc(C(=O)O)c(=O)cc1-2 (stereo not drawn) [Example 20, 6-(tert-butyl)-9-(1-carboxymethyl-1H-pyrazol-4-yl)-10-methoxy-2-oxo-6,7-dihydro-2H-pyrido[2,1-a]isoquinoline-3-carboxylic acid]",> 100000 nM
4,"CCOC(=O)CCn1cc(-c2cc3c(cc2OC)-c2cc(=O)c(C(=O)OCC)cn2C(C(C)(C)C)C3)cn1 (stereo not drawn) [Example 21, Ethyl 6-(tert-butyl)-9-(1-(3-ethoxy-3-oxopropyl)-1H-pyrazol-4-yl)-10-methoxy-2-oxo-6,7-dihydro-2H-pyrido[2,1-a]isoquinoline-3-carboxylate]",50000 to 100000 nM
